The values that follow come from publication PMC7878837, “Generation of Human-Induced Pluripotent Stem Cell-Derived Functional Enterocyte-Like Cells for Pharmacokinetic Studies” (Stem Cell Reports, 2021).

Read-outs that look alike come from different tables or passages of the source. A value given as a limit tells only on which side of the number the result lay.

Data set [1] in a line: Permeability test (Papp) across hiPSC-derived enterocyte-like cell monolayer. Type of data set: in vitro ADME. The settings on record: human, M3-2 medium, 37°C 2 h, n = 4. As to the method: The unlabeled compounds were analyzed by LC-MS/MS. […]
Permeability measurements
5 was determined as follows: the culture medium for hiPS-derived enterocyte-like cells was replaced with […]
started by replacing the FBS-containing HBSS buffer with substrate +/- inhibitor and incubated at 37°C for 2 h. The unlabeled compounds were analyzed by LC-MS/MS. The LC-MS/MS system consisted of a Waters ACQUITY UPLC (Waters Corporation, Milford, MA, USA) and a Waters Quattro Ultima mass spectrometer (Waters Corporation). The multiple reaction monitoring modes were used to monitor ions.
The detailed conditions for the analyses of the compounds are shown in Supplemental Table S1. The apparent membrane permeability coefficient (Papp) was calculated as follows. Papp ൌ ௗொௗ௧ ൈ ଵ஺஼బ Where dQ/dt is the amount of the compound permeated per unit of time, A is the surface area of insert membrane (0.33 cm2), and C0 is the initial compound concentration in the donor chamber. Differentiated cells showing TEER >30 Ω・cm2 were used. […]
100ൈቀ1െexp൫െα ൈP௔௣௣ ൯ቁ. Where α is the scaling factor. The fitting curve was calculated by nonlinear regression using Phoenix WinNonlin (Ver. 8.1, Certara, L.P.).

Data set [2] concerns the target T1, P-gp (Homo sapiens, UniProt P08183). The conditions noted are these: digoxin 1.27 nM, absence of inhibitor.
The conditions of data set [3]: fraction of oral dose absorbed in humans; ref Amidon et al., 1988; Sjöberg et al., 2013; Skolnik et al., 2010; Sugano et al., 2002; Takenaka et al., 2016; Tavelin et al., 2003; Xiao et al., 2019; cited from earlier work.
Data set [4] has as its system RPChiPS771-derived enterocyte-like cells. As to the kind of experiment: Real-time PCR of marker genes in hiPSC-derived enterocyte-like cells with or without VD3. The class given is cell-based, human. An excerpt:
We then used M3-2 for maturation and evaluated the time-dependent expression of marker genes (Figure 4D). […] The expression levels of UDP glucuronosyltransferase 1-1 (UGT1A1) and various isoforms of P450 metabolizing enzymes (CYP2B6, CYP3A4, and CYP3A7) increased in the presence of VD3 compared with the controls without VD3. The expression levels of uptake transporter, SLC15A1, and efflux transporters, ABCB1 and ABCG2, were not affected by VD3.
Cells were fixed in 4% paraformaldehyde (Nacalai Tesque) in PBS, permeabilized with 0.1% Triton X-100 (Nacalai Tesque). The following antibodies were used: anti-CDX2 (1:100, BioGenex, San Ramon, CA, MU392A-UC), anti-VILLIN (1:100, BD Transduction Laboratories, San Diego, 610359), Alexa 568-conjugated, and Alexa 488-conjugated antibodies (1:1000, ThermoFisher).
RNA was extracted from iPS cells using the RNeasy micro-kit or QIAzol (Qiagen, Hilden, Germany) and then treated with DNase (Qiagen). For reverse transcription reactions, 2.5 µg RNA was reverse-transcribed using PrimeScript™ RT Master Mix (Takara Bio). For real-time PCR analysis, the mRNA expression was quantified with either TaqMan Primers and Probe or using SYBR Green on a StepOne Plus (Applied Biosystems, Foster City, CA, USA). β-ACTIN and GAPDH were used as internal controls. Target mRNA levels were expressed as fold-change against human adult small intestine (ASI; ASI=1). Primer details are listed in Supplemental Table S2.
Membrane integrities of human iPSCs derived intestine cells and Caco-2 cells cultured on CVM were measured after the medium change, using a Millicell ERS-2 (Epithelial Volt-Ohm Meter, Millipore).
Transcellular transport assays and measurement of CYP3A metabolite
In Figure 2 and Figure S1, for assessing the transporter activity of P-gp, time-dependent directional (B-to-

A further data set relates to Caco-2 cells. The arrangement: method as in Artursson, 1990. The conditions noted are these: ref Artursson, 1990; cited from earlier work.
Data set [5] concerns T2, P-gp.
T2 construct: transport activities of efflux transporters, P-gp and BCRP, in the ChiPS18-derived enterocyte-like cells; endogenous in cells; host or cells: ChiPS18 human iPSC-derived enterocyte-like cells on CVM inserts
As to the kind of experiment: Rhodamine 123 permeability assay by fluorescence detection. Type of data set: in vitro ADME, human. The settings on record: human, not told, day 25, M3-2 with VD3 for the last 48 h (condition #8), read-out: rhodamine 123 flux ratio ([B-to-A transport]/[A-to-B transport]).
From the text: (§1) Flux ratio = Papp, basolateral to apical/Papp, apical to basolateral

Data set [6] addresses T1, P-gp. Described as above. Type of data set: in vitro ADME. The arrangement: transport activities of efflux transporters, P-gp and BCRP, in the ChiPS18-derived enterocyte-like cells; endogenous in cells; host or cells: ChiPS18 human iPSC-derived enterocyte-like cells on CVM inserts. The conditions noted are these: 10 μM, day 25, absence of Dex (condition #6, 7) or without Dex and DMSO (condition #5).
From the text: as §1

In another data set the test system is CYP3A4. The conditions noted are these: in vitro; ref Andrew Williams et al., 2002; cited from earlier work.
The mark [7] stands for this setting: D30 of differentiation, read-out: RPChiPS771 d30 Papp Mean ± SD.
The mark [8] stands for this setting: day 23 of differentiation, read-out: RPChiPS771 d23 Papp Mean ± SD.

One may read the Papp as a coefficient for how fast a substance crosses the barrier.

T1 sequence (P08183 whole entry): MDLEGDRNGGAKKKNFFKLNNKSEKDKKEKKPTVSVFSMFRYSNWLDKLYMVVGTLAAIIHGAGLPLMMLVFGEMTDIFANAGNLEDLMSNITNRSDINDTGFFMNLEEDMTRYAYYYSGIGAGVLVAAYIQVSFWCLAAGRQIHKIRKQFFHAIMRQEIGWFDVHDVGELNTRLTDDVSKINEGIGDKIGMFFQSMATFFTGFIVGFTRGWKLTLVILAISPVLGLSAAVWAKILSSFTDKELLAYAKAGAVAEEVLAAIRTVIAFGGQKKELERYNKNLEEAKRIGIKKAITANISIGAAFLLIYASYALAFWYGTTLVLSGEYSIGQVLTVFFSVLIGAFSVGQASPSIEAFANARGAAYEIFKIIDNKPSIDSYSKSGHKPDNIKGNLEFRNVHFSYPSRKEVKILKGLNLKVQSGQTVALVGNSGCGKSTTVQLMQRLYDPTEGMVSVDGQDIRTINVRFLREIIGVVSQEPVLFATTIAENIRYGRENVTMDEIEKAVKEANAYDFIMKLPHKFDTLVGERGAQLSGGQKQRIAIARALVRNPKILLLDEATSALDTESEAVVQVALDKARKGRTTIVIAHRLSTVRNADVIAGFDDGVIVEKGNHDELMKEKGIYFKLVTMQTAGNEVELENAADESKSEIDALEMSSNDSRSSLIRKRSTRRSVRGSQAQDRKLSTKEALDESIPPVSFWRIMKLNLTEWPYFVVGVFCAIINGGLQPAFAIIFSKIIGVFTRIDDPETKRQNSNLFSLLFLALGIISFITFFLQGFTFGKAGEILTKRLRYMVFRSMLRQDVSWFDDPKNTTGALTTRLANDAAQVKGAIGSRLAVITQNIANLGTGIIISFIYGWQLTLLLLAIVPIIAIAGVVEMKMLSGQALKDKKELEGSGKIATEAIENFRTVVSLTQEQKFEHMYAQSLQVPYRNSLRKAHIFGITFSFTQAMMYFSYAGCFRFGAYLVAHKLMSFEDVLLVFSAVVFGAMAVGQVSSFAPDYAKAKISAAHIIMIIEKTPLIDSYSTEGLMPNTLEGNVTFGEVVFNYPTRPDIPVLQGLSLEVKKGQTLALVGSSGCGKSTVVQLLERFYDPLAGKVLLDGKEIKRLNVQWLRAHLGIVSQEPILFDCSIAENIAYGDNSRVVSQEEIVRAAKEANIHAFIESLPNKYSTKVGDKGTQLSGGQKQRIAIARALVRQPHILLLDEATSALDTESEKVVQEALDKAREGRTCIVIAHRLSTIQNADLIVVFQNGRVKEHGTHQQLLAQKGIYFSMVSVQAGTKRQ

For `C[C@H]1O[C@@H](O[C@H]2[C@@H](O)C[C@H](O[C@H]3[C@@H](O)C[C@H](O[C@H]4CC[C@@]5(C)[C@H](CC[C@@H]6[C@@H]5C[C@@H](O)[C@]5(C)[C@@H](C7=CC(=O)OC7)CC[C@]65O)C4)O[C@@H]3C)O[C@@H]2C)C[C@H](O)[C@@H]1O` [digoxin], the Papp at 2 h in data set [1] (setting [7]) was found to be 5.18 ± 0.7 ×10⁻⁶ cm/s; in data set [1] (setting [8]) it was 6.15 ± 0.94 ×10⁻⁶ cm/s. Moreover, on P-gp [2], the “directional transport (B-to-A vs A-to-B)” value is “Basal-to-apical (B-to-A) transport exceeded apical-to-basal (A-to-B) transport”.
On to `NS(=O)(=O)c1cc2c(cc1Cl)NCNS2(=O)=O` [hydrochlorothiazide], for which the apparent permeability coefficient (Papp) at 2 h in data set [1] (setting [7]) came to 9.5 ± 4.92 ×10⁻⁶ cm/s; in data set [1] (setting [8]) it was 2.1 ± 1.12 ×10⁻⁶ cm/s.
Regarding `O=C(O)Cc1ccccc1Nc1c(Cl)cccc1Cl` [diclofenac], the Papp at 2 h in data set [1] (setting [7]) was 12 ± 1.2 ×10⁻⁶ cm/s; in data set [1] (setting [8]), 17.4 ± 0.6 ×10⁻⁶ cm/s.
`O=C(O)c1cc(/N=N/c2ccc(S(=O)(=O)Nc3ccccn3)cc2)ccc1O` [sulfasalazine]: the apparent permeability coefficient (Papp) at 2 h in data set [1] (setting [7]) came to 2.65 ± 1.01 ×10⁻⁶ cm/s; in data set [1] (setting [8]), 1.02 ± 0.4 ×10⁻⁶ cm/s. Besides, the “Human Fa” value in data set [3] is 13%.
Regarding `CC(C)(C)NCC(O)COc1cccc2c1CC(O)C(O)C2` (centres unmarked) [nadolol], the values for the Papp at 2 h in data set [1] (setting [7]) and in data set [1] (setting [8]) were 8.96 ± 9.29 ×10⁻⁶ cm/s and 2.83 ± 1.5 ×10⁻⁶ cm/s, respectively. Further, in data set [3], the “Human Fa” value is on record as 33%.
As to `C=C1/C(=C\C=C2/CCC[C@]3(C)[C@@H]([C@H](C)CCCC(C)(C)O)CC[C@@H]23)C[C@@H](O)C[C@@H]1O` [VD3, 1α,25-dihydroxyvitamin D3], in data set [4] (presence of VD3, M3-2), the “expression level of ALPI” value is given as “upregulated”. For the same compound, the “expression levels of UGT1A1, CYP2B6, CYP3A4 and CYP3A7” value in data set [4] (presence of VD3 compared with controls without VD3, M3-2) is given as “increased”. In data set [4] (presence of VD3 vs without, M3-2), the “expression levels of SLC15A1, ABCB1 and ABCG2” value is on record as “not affected”.
Take `COCCc1ccc(OCC(O)CNC(C)C)cc1` (centres unmarked) [metoprolol]: the Papp at 2 h in data set [1] (setting [7]) is 25.1 ± 4.8 ×10⁻⁶ cm/s; in data set [1] (setting [8]) it was 22.6 ± 1.3 ×10⁻⁶ cm/s.
The matching figures for `CCN1CCCC1CNC(=O)c1cc(S(N)(=O)=O)ccc1OC` (centres unmarked) [sulpiride]: 8.39 ± 4.96 ×10⁻⁶ cm/s and 3.15 ± 1.18 ×10⁻⁶ cm/s.
With `Cc1cc(=O)n(-c2ccccc2)n1C` [antipyrine], the results for the apparent permeability coefficient (Papp) at 2 h in data set [1] (setting [7]) and in data set [1] (setting [8]) were 41.9 ± 2.2 ×10⁻⁶ cm/s and 48.4 ± 1.7 ×10⁻⁶ cm/s, respectively. Besides, the “Human Fa” value in data set [3] is 97%.
Turning to `CC(C)NCC(O)COc1cccc2ccccc12` (centres unmarked) [propranolol], the results for the Papp at 2 h in data set [1] (setting [7]) and in data set [1] (setting [8]) were 29.3 ± 2.5 ×10⁻⁶ cm/s and 26 ± 2.7 ×10⁻⁶ cm/s, respectively. The passive permeability in the data set with Caco-2 cells was 41.9 ×10⁻⁶ cm/s.
In the case of `COC(=O)c1ccccc1-c1c2ccc(=N)cc-2oc2cc(N)ccc12` [rhodamine 123], in the data set on P-gp [5], the efflux ratio at 10 μM was under 2. Also, at P-gp [6], the “rhodamine 123 flux ratio ([B-to-A transport]/[A-to-B transport])” value is “low”.
Consider `Cc1ncc2n1-c1ccc(Cl)cc1C(c1ccccc1F)=NC2` [midazolam], for which, in the data set on CYP3A4, the “formation of 1′-OH midazolam by CYP3A4 compared to CYP3A7” value is given as over 600 fold.
With `NC(N)=Nc1nc(CSCCC(N)=NS(N)(=O)=O)cs1` [famotidine], the Papp at 2 h was determined as 7.42 ± 3.36 ×10⁻⁶ cm/s in data set [1] (setting [7]) and 5.05 ± 1.76 ×10⁻⁶ cm/s in data set [1] (setting [8]). For the same compound, the “Human Fa” value in data set [3] is given as 38%.
Consider `Nc1nc2c(ncn2COCCO)c(=O)[nH]1` [acyclovir], for which the apparent permeability coefficient (Papp) at 2 h in data set [1] (setting [7]) came to 10 ± 6.34 ×10⁻⁶ cm/s; in data set [1] (setting [8]) it was 3.62 ± 0.73 ×10⁻⁶ cm/s.
With `CNC(=C[N+](=O)[O-])NCCSCc1ccc(CN(C)C)o1` [ranitidine], the apparent permeability coefficient (Papp) at 2 h in data set [1] (setting [7]) worked out at 8.3 ± 6.06 ×10⁻⁶ cm/s; in data set [1] (setting [8]) it was 3.94 ± 0.7 ×10⁻⁶ cm/s. The “Human Fa” value in data set [3] is reported as 50%.
`C[C@]12CC[C@H]3[C@@H](CCC4=CC(=O)CC[C@@]43C)[C@@H]1CC[C@@H]2O` [testosterone]: in data set [3], the “Human Fa” value is 100%.
